Results published in ChEMBL document CHEMBL5214896, “Discovery of Selective Pituitary Adenylate Cyclase 1 Receptor (PAC1R) Antagonist Peptides Potent in a Maxadilan/PACAP38-Induced Increase in Blood Flow Pharmacodynamic Model” (J Med Chem, 2021).
Values belong to the compound of their own block, whether it stands above or below them. Residues, ends and D or L forms follow the SMILES beside them.

What was measured:
[1] = molecular target: T1, Pituitary adenylate cyclase-activating polypeptide type I receptor (Homo sapiens, UniProt P41586); test: Antagonist activity at PAC1R in human SH-SY5Y cells assessed as inhibition of PACAP38-induced cAMP accumulation pre-incubated for 30 mins followed by agonist addition and measured after 75 mins by Eu-cAMP tracer based LANCE ultra cAMP assay; format: cell-based
[2] = molecular target: T2, Vasoactive intestinal polypeptide receptor 1 (Homo sapiens, UniProt P32241); test: Antagonist activity at VPAC1 in human SH-SY5Y cells assessed as inhibition of PACAP38-induced cAMP accumulation pre-incubated for 30 mins followed by agonist addition and measured after 75 mins by Eu-cAMP tracer based LANCE ultra cAMP assay; format: functional, cell-based
T2 sequence (P32241 whole entry): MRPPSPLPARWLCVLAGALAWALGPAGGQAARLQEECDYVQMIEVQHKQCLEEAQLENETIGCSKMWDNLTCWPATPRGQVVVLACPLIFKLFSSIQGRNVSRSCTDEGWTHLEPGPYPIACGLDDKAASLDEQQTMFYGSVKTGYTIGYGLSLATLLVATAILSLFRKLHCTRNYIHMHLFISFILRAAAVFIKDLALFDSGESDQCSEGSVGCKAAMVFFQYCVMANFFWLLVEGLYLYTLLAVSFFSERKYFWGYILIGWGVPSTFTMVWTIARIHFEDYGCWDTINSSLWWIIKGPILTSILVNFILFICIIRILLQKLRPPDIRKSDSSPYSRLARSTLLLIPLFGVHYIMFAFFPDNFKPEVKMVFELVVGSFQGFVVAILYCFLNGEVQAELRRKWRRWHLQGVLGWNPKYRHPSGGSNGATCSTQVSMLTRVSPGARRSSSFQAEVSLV

[3] = molecular target: T3, Vasoactive intestinal polypeptide receptor 2 (Homo sapiens, UniProt P41587); test: Antagonist activity at VPAC2 in human SH-SY5Y cells assessed as inhibition of PACAP38-induced cAMP accumulation pre-incubated for 30 mins followed by agonist addition and measured after 75 mins by Eu-cAMP tracer based LANCE ultra cAMP assay; format: functional, cell-based
T3 sequence (P41587 whole entry): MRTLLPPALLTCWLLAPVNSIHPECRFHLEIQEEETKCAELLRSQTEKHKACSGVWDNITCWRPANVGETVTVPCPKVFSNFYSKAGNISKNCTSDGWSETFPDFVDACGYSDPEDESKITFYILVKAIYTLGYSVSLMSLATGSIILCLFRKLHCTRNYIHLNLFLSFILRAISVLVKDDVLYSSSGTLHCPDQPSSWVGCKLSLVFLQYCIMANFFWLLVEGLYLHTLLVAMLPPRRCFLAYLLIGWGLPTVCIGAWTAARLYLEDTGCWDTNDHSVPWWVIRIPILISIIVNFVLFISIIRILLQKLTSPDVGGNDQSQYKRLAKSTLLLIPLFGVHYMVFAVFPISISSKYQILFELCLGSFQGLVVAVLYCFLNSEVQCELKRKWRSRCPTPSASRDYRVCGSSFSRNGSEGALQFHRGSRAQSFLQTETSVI

[4] = molecular target: T1, Pituitary adenylate cyclase-activating polypeptide type I receptor; test: Agonist activity at PAC1R in human SH-SY5Y cells assessed as cAMP accumulation incubated for 60 mins by Eu-cAMP tracer based LANCE ultra cAMP assay; format: cell-based
Target sequence in this assay (P41586 whole entry): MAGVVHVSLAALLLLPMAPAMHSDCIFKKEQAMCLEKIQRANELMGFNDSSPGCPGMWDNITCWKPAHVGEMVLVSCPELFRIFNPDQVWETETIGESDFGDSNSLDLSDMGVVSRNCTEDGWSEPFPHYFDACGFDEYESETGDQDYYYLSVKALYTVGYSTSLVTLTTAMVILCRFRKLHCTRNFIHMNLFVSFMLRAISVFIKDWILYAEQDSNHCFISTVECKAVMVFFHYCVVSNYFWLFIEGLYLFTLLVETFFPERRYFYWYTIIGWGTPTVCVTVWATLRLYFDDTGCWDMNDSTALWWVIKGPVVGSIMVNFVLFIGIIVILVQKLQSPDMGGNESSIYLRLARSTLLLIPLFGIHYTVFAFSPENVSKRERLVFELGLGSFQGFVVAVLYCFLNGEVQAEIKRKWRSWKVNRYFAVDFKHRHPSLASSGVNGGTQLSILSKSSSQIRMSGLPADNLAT

[5] = molecular target: T2, Vasoactive intestinal polypeptide receptor 1; test: Agonist activity at VPAC1 in human SH-SY5Y cells assessed as cAMP accumulation incubated for 60 mins by Eu-cAMP tracer based LANCE ultra cAMP assay; format: functional, cell-based
[6] = molecular target: T3, Vasoactive intestinal polypeptide receptor 2; test: Agonist activity at VPAC2 in human SH-SY5Y cells assessed as cAMP accumulation incubated for 60 mins by Eu-cAMP tracer based LANCE ultra cAMP assay; format: functional, cell-based
[7] = AUC (0-infinity) in Sprague-Dawley rat at 2 mg/kg,iv measured upto 6 hrs by LC-MS analysis; format: ADME, organism-based; design: dose 2 mg/kg, time < 6 hrs, route iv; conditions: in vivo
[8] = molecular target: T1, Pituitary adenylate cyclase-activating polypeptide type I receptor; test: Antagonist activity at PAC1R in human SH-SY5Y cells assessed as inhibition of Maxadilan-induced cAMP accumulation pre-incubated for 30 mins followed by agonist addition and measured after 75 mins by Eu-cAMP tracer based LANCE ultra cAMP assay; format: cell-based; conditions: filed as antagonist, time 105.0 min
Target sequence in this assay (P41586 21-468 limits assumed): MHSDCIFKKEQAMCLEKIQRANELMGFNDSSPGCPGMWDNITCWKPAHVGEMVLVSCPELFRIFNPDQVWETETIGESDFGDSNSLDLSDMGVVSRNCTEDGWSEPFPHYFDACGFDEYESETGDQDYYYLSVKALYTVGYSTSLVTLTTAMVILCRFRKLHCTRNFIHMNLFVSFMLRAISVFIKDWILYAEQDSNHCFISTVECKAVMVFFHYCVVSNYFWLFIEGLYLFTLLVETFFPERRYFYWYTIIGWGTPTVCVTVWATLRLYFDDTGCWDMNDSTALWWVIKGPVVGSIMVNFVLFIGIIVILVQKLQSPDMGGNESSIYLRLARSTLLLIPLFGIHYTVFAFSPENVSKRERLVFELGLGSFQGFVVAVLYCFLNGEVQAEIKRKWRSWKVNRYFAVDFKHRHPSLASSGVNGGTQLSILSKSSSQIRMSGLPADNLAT

[9] = Half life in Sprague-Dawley rat at 10 mg/kg,sc measured upto 6 hrs by LC-MS analysis; format: ADME, organism-based; conditions: in vivo
[10] = Volume of distribution at steady state in Sprague-Dawley rat at 2 mg/kg,iv measured upto 6 hrs by LC-MS analysis; format: ADME, organism-based; conditions: in vivo, read-out: Vdss
[11] = molecular target: T4, Pituitary adenylate cyclase-activating polypeptide type I receptor (Rattus norvegicus) (UniProt P32215); test: Antagonist activity at PAC1R in rat RG2 cells assessed as inhibition of PACAP38-induced cAMP accumulation pre-incubated for 30 mins followed by agonist addition and measured after 75 mins by Eu-cAMP tracer based LANCE ultra cAMP assay; format: cell-based; conditions: filed as antagonist, time 105.0 min
T4 sequence (whole entry): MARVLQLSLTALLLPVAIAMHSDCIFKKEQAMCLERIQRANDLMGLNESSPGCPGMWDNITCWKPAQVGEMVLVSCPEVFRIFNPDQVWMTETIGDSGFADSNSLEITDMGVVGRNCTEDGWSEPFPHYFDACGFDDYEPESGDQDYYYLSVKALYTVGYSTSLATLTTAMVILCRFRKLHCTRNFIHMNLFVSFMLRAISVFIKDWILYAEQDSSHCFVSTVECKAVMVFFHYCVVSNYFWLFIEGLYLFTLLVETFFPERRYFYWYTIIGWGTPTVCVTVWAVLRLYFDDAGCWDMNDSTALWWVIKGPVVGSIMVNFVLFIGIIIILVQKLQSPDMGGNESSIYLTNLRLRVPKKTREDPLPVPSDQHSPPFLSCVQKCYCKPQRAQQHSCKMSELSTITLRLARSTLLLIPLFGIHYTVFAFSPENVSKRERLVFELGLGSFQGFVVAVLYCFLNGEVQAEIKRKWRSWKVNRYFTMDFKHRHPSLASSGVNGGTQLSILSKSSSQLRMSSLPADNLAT

[12] = Tmax in Sprague-Dawley rat at 10 mg/kg,sc measured upto 6 hrs by LC-MS analysis; format: ADME, organism-based; conditions: in vivo
[13] = Cmax in Sprague-Dawley rat at 10 mg/kg,sc measured upto 6 hrs by LC-MS analysis; format: ADME, organism-based; design: dose 10 mg/kg, time < 6 hrs, route sc; conditions: in vivo
[14] = molecular target: T4, Pituitary adenylate cyclase-activating polypeptide type I receptor (Rattus norvegicus); test: Antagonist activity at PAC1R in rat RG2 cells assessed as inhibition of Maxadilan-induced cAMP accumulation pre-incubated for 30 mins followed by agonist addition and measured after 75 mins by Eu-cAMP tracer based LANCE ultra cAMP assay; format: cell-based; conditions: filed as antagonist, time 105.0 min
[15] = AUC (0-infinity) in Sprague-Dawley rat at 10 mg/kg,sc measured upto 6 hrs by LC-MS analysis; format: ADME, organism-based; design: dose 10 mg/kg, time < 6 hrs, route sc; conditions: in vivo
[16] = Half life in Sprague-Dawley rat at 2 mg/kg,iv measured upto 6 hrs by LC-MS analysis; format: ADME, organism-based; conditions: in vivo
[17] = Bioavailability in Sprague-Dawley rat at 10 mg/kg,sc measured upto 6 hrs by LC-MS analysis; format: ADME, organism-based; conditions: in vivo
Rattus norvegicus = test: In vivo Antagonist activity at Maxadilan-induced Sprague-Dawley rat assessed as reduction in Maxadilan-induced blood flow at 0.3 mg/kg,sc measured after 45 mins; format: functional; design: scale not given: the % may be the effect or the level left; conditions: 0.75 h
[18] = Cmax in Sprague-Dawley rat at 2 mg/kg,iv measured upto 6 hrs by LC-MS analysis; format: ADME, organism-based; design: time < 6 hrs, dose 2 mg/kg, route iv; conditions: in vivo
[19] = Clearance in Sprague-Dawley rat at 2 mg/kg,iv measured upto 6 hrs by LC-MS analysis; format: ADME, organism-based; conditions: in vivo

IC50 [1]: 3.5 nM
IC50 [2]: 118 nM
IC50 [3]: 4.5 nM
Compound: CSCC[C@H](NC(=O)[C@H](CCC(N)=O)NC(=O)[C@H](CCCCN)NC(=O)[C@H](CCCNC(=N)N)NC(=O)[C@H](Cc1ccc(O)cc1)NC(=O)[C@H](CCCNC(=N)N)NC(=O)[C@H](CO)NC(=O)[C@H](Cc1ccc(O)cc1)NC(=O)[C@H](CO)NC(=O)[C@H](CC(=O)O)NC(=O)[C@@H](NC(=O)[C@@H](N)Cc1ccccc1)[C@@H](C)O)C(=O)N[C@@H](C)C(=O)N[C@H](C(=O)N[C@@H](CCCCN)C(=O)N[C@@H](CCCCN)C(=O)N[C@@H](Cc1ccc(O)cc1)C(=O)N[C@@H](CC(C)C)C(=O)N[C@@H](C)C(=O)N[C@@H](C)C(=O)N[C@H](C(=O)N[C@@H](CC(C)C)C(=O)NCC(=O)N[C@@H](CCCCN)C(=O)N[C@@H](CCCNC(=N)N)C(=O)N[C@@H](Cc1ccc(O)cc1)C(=O)N[C@@H](CCCCN)C(=O)N[C@@H](CCC(N)=O)C(=O)N[C@@H](CCCNC(=N)N)C(=O)N[C@H](C(=O)N[C@@H](CCCCN)C(=O)N[C@@H](CC(N)=O)C(=O)N[C@@H](CCCCN)C(N)=O)C(C)C)C(C)C)C(C)C

EC50 [4]: 0.03 nM
EC50 [5]: 0.03 nM
EC50 [6]: 0.06 nM
Compound: CC[C@H](C)[C@H](NC(=O)CNC(=O)[C@H](CC(=O)O)NC(=O)[C@H](CO)NC(=O)[C@@H](N)Cc1cnc[nH]1)C(=O)N[C@@H](Cc1ccccc1)C(=O)N[C@H](C(=O)N[C@@H](CC(=O)O)C(=O)N[C@@H](CO)C(=O)N[C@@H](Cc1ccc(O)cc1)C(=O)N[C@@H](CO)C(=O)N[C@@H](CCCNC(=N)N)C(=O)N[C@@H](Cc1ccc(O)cc1)C(=O)N[C@@H](CCCNC(=N)N)C(=O)N[C@@H](CCCCN)C(=O)N[C@@H](CCC(N)=O)C(=O)N[C@@H](CCSC)C(=O)N[C@@H](C)C(=O)N[C@H](C(=O)N[C@@H](CCCCN)C(=O)N[C@@H](CCCCN)C(=O)N[C@@H](Cc1ccc(O)cc1)C(=O)N[C@@H](CC(C)C)C(=O)N[C@@H](C)C(=O)N[C@@H](C)C(=O)N[C@H](C(=O)N[C@@H](CC(C)C)C(=O)NCC(=O)N[C@@H](CCCCN)C(=O)N[C@@H](CCCNC(=N)N)C(=O)N[C@@H](CCCCN)C(=O)N[C@@H](Cc1ccc(O)cc1)C(=O)N[C@@H](CCCCN)C(=O)N[C@@H](CCC(N)=O)C(=O)N[C@@H](CCCNC(=N)N)C(=O)N[C@H](C(=O)N[C@@H](CCCCN)C(=O)N[C@@H](CC(N)=O)C(=O)N[C@@H](CCCCN)C(N)=O)C(C)C)C(C)C)C(C)C)[C@@H](C)O

AUC(0-inf) [7]: 1.16 µM·h
IC90 [8]: 0.12 nM
half-life [9]: 41.3 min
Vd [10]: 0.217 L/kg
IC90 [11]: 0.17 nM
Tmax [12]: 15 min
Cmax [13]: 1110 nM
IC90 [14]: 0.14 nM
AUC(0-inf) [15]: 1.65 µM·h
half-life [16]: 58.1 min
IC90 ([1]; filed as antagonist, time 105.0 min): 0.42 nM
bioavailability [17]: 28%
Cmax [18]: 4170 nM
clearance [19]: 6.55 mL/min/kg
Compound: CC[C@H](C)[C@H](NC(=O)[C@H](C)NC(=O)[C@H](CCCCN)NC(=O)[C@H](CCCNC(=N)N)NC(=O)[C@H](Cc1ccccc1)NC(=O)[C@H](CCC(N)=O)NC(=O)[C@@H]1CSSC[C@H](N)CC(=O)N[C@@H](CC(=O)O)C(=O)N[C@@H](C)C(=O)N[C@@H]([C@@H](C)O)C(=O)N1)C(=O)N[C@@H](CC(=O)O)C(=O)N[C@@H](CC(=O)O)C(=O)N[C@H]1CSSC[C@@H](C(=O)N[C@@H](CCSC)C(=O)N[C@@H](CCCCN)C(=O)N[C@@H](CCC(N)=O)C(=O)N[C@@H](CCCCN)C(=O)N[C@@H](CCCCN)C(=O)N[C@@H](CCCCN)C(=O)N[C@@H](CCC(=O)O)C(=O)N[C@@H](Cc2c[nH]c3ccccc23)C(=O)N[C@@H](CCCCN)C(=O)N[C@@H](C)C(=O)NCC(N)=O)NC(=O)[C@H](C)NC(=O)[C@H](CCCCN)NC(=O)[C@H](Cc2ccccc2)NC(=O)[C@H](C(C)C)NC(=O)[C@H](CO)NC(=O)[C@H](CO)NC(=O)[C@H](Cc2cnc[nH]2)NC(=O)[C@H](Cc2ccc(O)cc2)NC(=O)[C@H](C)NC(=O)[C@H](CCC(N)=O)NC(=O)[C@H](CCCNC(=N)N)NC(=O)[C@H](C)NC1=O (HELM PEPTIDE1{[N[C@@H](CS[*:3])CC(=O)[*:2]].D.A.T.C.Q.F.R.K.A.I.D.D.C.A.R.Q.A.Y.H.S.S.V.F.K.A.C.M.K.Q.K.K.K.E.W.K.A.G.[am]}$PEPTIDE1,PEPTIDE1,1:R3-5:R3|PEPTIDE1,PEPTIDE1,14:R3-27:R3$$$V2.0)
Activity (Rattus norvegicus): 110%
